# Results taken from ChEMBL document CHEMBL5338719, “Recent advance on pleiotropic cholinesterase inhibitors bearing amyloid modulation efficacy” (Eur J Med Chem, 2022).
# How the values were obtained:
# [1] = target: T1, Beta-secretase 1 (Homo sapiens, UniProt P56817); assay: Inhibition of BACE1 (unknown origin) at 50 uM by FRET assay relative to control
# [2] = target: T2, Amyloid-beta precursor protein (Homo sapiens, UniProt P05067); assay: Inhibition of amyloid beta 1 to 42 (unknown origin) aggregation at 50 uM by ThT binding assay relative to control
# T2 sequence (P05067 whole entry): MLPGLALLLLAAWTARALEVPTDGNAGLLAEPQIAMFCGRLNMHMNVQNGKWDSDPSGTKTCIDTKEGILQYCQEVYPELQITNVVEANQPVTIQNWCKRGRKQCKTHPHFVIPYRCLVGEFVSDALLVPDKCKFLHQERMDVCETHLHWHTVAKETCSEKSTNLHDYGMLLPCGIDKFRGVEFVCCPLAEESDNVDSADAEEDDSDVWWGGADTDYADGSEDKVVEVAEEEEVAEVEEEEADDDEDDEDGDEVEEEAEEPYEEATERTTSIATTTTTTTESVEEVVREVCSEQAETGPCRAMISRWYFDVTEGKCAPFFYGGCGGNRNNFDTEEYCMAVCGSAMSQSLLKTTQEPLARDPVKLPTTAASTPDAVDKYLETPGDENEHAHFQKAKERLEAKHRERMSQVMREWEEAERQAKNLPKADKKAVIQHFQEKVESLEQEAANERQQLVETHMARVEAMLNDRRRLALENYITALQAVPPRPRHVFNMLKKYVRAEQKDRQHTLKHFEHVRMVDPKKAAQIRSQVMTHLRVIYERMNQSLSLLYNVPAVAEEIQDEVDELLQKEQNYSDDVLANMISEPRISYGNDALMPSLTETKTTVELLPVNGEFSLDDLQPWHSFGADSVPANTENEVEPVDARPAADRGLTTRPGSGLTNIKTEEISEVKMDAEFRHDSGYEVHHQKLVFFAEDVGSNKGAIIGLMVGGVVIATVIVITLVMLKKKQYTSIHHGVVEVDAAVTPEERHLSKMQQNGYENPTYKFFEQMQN
# [3] = target: T3, Acetylcholinesterase (Electrophorus electricus, UniProt O42275); assay: Inhibition of electric eel AChE using acetylthiocholine iodine as substrate by Ellman's method
# T3 sequence (O42275 whole entry): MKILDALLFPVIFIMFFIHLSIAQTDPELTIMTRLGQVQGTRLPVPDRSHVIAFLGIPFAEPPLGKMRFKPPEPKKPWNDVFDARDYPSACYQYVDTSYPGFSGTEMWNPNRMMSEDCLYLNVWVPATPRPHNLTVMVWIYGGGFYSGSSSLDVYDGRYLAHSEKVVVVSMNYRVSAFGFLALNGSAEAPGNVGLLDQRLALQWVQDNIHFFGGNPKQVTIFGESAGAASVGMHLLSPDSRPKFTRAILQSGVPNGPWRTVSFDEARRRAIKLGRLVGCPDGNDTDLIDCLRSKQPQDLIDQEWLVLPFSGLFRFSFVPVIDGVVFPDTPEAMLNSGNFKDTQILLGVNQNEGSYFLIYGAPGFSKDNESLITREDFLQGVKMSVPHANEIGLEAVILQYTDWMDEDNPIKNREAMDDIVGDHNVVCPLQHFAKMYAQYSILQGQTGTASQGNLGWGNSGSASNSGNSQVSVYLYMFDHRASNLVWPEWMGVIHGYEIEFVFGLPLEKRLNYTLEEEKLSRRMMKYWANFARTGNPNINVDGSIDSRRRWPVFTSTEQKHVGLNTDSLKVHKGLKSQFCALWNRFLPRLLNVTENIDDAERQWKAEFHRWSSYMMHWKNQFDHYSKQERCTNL
# [4] = target: T2, Amyloid-beta precursor protein; assay: Inhibition of amyloid beta 42 (unknown origin) aggregation at 80 uM relative to control
# [5] = target: Acetylcholinesterase (Torpedo californica, UniProt P04058); assay: Inhibition of pacific electric ray AChE; parameters: species or system Tetronarce californica
# Acetylcholinesterase (Torpedo californica, UniProt P04058), sequence (P04058 whole entry): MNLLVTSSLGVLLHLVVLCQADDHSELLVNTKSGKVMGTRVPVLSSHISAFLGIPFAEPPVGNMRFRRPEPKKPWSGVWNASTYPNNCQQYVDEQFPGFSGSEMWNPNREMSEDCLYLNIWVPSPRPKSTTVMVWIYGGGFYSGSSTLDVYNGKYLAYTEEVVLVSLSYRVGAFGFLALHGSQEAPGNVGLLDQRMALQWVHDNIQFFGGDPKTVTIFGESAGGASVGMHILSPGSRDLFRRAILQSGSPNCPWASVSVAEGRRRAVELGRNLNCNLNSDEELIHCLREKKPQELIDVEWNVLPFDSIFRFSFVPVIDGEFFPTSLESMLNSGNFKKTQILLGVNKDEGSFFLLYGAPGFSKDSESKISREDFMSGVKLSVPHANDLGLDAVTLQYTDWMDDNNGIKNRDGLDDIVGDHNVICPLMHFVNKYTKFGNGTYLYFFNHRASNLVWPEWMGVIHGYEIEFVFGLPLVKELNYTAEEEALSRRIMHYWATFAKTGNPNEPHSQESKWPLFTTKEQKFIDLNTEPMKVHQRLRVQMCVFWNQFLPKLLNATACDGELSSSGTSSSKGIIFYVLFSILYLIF
# [6] = target: T1, Beta-secretase 1; assay: Inhibition of BACE1 (unknown origin)
# [7] = target: T4, Cholinesterase (Equus caballus, UniProt P81908); assay: Inhibition of equine BChE
# T4 sequence (P81908 whole entry): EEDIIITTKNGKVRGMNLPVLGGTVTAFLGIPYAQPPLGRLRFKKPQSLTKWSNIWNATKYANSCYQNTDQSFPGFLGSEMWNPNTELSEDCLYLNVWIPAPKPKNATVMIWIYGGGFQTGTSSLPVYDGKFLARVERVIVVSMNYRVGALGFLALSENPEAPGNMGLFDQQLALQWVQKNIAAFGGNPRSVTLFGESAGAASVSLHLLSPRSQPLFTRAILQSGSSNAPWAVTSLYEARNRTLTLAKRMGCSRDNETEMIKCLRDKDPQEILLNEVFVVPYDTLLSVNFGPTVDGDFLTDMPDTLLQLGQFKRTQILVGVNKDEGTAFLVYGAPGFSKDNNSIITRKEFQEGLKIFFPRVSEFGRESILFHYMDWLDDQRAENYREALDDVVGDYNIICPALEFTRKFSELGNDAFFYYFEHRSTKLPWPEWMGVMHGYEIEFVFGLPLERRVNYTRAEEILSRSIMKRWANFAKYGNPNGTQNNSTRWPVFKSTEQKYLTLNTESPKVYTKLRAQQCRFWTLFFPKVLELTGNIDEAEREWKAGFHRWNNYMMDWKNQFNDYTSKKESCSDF
# [8] = target: T2, Amyloid-beta precursor protein; assay: Inhibition of amyloid beta (25 to 35) (unknown origin) aggregation at 10 uM relative to control
# [9] = target: T3, Acetylcholinesterase; assay: Inhibition of electric eel AChE
# [10] = target: T4, Cholinesterase; assay: Inhibition of equine BChE incubated for 15 mins by Ellman's method
# [11] = target: T2, Amyloid-beta precursor protein; assay: Inhibition of amyloid beta 42 (unknown origin) aggregation at 10 uM for 24 hrs by ThT fluorescence assay relative to control
# [12] = target: T2, Amyloid-beta precursor protein; assay: Inhibition of amyloid beta 1 to 42 (unknown origin) CuCl2 induced aggregation at 40 uM by ThT fluorometric assay relative to control
# [13] = target: T2, Amyloid-beta precursor protein; assay: Inhibition of amyloid beta 42 (unknown origin) fibrillization at 44 uM for 48 hrs by ThT fluorescence assay relative to control
# [14] = target: T4, Cholinesterase; assay: Inhibition of equine BChE using BTChI as substrate
# [15] = target: T1, Beta-secretase 1; assay: Inhibition of BACE1 (unknown origin) at 20 uM by fluorescence assay relative to control
# [16] = target: T3, Acetylcholinesterase; assay: Inhibition of electric eel AChE using ATChI as substrate
# [17] = target: T5, Acetylcholinesterase (Homo sapiens, UniProt P22303); assay: Inhibition of human AChE by Ellman's method
# T5 sequence (P22303 whole entry): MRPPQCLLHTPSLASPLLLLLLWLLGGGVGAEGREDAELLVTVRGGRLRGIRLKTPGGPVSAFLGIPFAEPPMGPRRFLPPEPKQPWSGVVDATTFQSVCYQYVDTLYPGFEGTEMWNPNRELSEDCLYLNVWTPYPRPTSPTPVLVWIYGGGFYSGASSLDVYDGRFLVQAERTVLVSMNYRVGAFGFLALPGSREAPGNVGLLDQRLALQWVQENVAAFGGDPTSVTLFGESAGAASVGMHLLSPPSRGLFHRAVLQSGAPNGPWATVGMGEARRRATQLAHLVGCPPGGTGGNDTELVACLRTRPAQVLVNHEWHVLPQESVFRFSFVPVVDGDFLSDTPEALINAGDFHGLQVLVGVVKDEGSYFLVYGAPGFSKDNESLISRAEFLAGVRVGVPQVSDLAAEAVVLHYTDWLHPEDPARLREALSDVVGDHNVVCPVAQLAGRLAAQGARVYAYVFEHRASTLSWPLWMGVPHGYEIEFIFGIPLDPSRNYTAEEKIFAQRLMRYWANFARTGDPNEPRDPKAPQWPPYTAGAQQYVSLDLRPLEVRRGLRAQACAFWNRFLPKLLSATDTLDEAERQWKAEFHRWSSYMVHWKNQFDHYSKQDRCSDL
# [18] = target: T2, Amyloid-beta precursor protein; assay: Inhibition of amyloid beta 42 (unknown origin) aggregation at 25 uM by Thioflavin T-based fluorescence assay relative to control
# [19] = target: T4, Cholinesterase; assay: Inhibition of equine BChE by Ellman's method
# [20] = target: T5, Acetylcholinesterase; assay: Inhibition of human recombinant AChE expressed in HEK293 cells using acetylthiocholine as substrate incubated for 120 mins by Ellman's method
# [21] = target: T6, Cholinesterase (Homo sapiens, UniProt P06276); assay: Inhibition of human recombinant BChE expressed in HEK293 cells using butyrylthiocholine as substrate incubated for 120 mins by Ellman's method
# T6 sequence (P06276 whole entry): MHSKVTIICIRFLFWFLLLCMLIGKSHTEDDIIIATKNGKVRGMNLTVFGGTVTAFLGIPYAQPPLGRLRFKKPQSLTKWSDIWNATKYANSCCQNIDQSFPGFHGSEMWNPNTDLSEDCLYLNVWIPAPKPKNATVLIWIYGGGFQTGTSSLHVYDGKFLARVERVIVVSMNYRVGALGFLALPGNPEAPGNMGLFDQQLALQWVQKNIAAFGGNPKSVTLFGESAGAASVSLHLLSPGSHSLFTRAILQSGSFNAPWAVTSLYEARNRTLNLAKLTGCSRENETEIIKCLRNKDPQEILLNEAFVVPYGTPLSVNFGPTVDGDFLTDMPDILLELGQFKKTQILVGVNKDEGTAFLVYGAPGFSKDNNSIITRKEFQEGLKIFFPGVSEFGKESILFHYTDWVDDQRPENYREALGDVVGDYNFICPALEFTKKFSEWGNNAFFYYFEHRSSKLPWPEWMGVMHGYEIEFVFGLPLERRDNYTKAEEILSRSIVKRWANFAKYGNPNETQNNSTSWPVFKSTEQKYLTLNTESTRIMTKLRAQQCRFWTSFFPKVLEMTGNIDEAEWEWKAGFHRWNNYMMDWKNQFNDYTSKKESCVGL
# [22] = target: T2, Amyloid-beta precursor protein; assay: Inhibition of amyloid beta 42 (unknown origin) aggregation at 1 mM for 12 hrs relative to control
# [23] = target: T2, Amyloid-beta precursor protein; assay: Inhibition of amyloid beta 1 to 42 (unknown origin) self induced aggregation at 100 uM by thioflavin T-based fluorometric assay relative to control
# [24] = target: T7, Acetylcholinesterase (Rattus norvegicus, UniProt P37136); assay: Inhibition of rat cortex homogenate AChE by Ellman's method; assay type: tissue-based
# T7 sequence (P37136 whole entry): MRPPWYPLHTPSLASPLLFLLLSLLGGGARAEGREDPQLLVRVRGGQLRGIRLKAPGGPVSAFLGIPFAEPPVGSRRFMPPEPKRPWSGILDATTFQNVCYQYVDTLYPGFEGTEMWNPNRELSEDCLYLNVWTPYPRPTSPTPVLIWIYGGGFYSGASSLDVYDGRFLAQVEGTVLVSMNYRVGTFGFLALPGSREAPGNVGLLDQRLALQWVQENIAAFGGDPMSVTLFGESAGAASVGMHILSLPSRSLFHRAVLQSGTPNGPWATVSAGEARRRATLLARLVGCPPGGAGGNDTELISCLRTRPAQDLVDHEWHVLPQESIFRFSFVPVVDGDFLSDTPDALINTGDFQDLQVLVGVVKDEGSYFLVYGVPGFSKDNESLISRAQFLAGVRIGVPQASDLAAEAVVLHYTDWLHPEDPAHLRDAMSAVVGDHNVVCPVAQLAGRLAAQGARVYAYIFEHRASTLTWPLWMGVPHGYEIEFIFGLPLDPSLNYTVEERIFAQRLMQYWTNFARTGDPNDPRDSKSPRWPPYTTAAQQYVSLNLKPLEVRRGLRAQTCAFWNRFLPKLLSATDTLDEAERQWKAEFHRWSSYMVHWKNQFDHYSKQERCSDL
# [25] = target: T2, Amyloid-beta precursor protein; assay: Inhibition of amyloid beta 1 to 42 (unknown origin) self induced aggregation at 25 uM by ThT fluorescence assay relative to control
# [26] = target: T6, Cholinesterase; assay: Inhibition of human BChE by Ellmans method
# [27] = target: T2, Amyloid-beta precursor protein; assay: Inhibition of amyloid beta 42 (unknown origin) self aggregation at 25 uM by ThT fluorometric assay relative to control
# [28] = target: T3, Acetylcholinesterase; assay: Inhibition of electric eel AChE by Ellman's method
# [29] = target: T2, Amyloid-beta precursor protein; assay: Inhibition of amyloid beta 1 to 42 (unknown origin) aggregation at 50 uM measured every 10 mins for 72 hrs by ThT fluorometric assay relative to control
# [30] = target: T5, Acetylcholinesterase; assay: Inhibition of human AChE
# [31] = target: Microtubule-associated protein tau (Homo sapiens) (UniProt P10636); assay: Inhibition of tau (306 to 336 residue) (unknown origin) aggregation at 50 uM incubated overnight by ThT fluorometric assay relative to control
# Microtubule-associated protein tau (Homo sapiens), sequence (P10636 whole entry): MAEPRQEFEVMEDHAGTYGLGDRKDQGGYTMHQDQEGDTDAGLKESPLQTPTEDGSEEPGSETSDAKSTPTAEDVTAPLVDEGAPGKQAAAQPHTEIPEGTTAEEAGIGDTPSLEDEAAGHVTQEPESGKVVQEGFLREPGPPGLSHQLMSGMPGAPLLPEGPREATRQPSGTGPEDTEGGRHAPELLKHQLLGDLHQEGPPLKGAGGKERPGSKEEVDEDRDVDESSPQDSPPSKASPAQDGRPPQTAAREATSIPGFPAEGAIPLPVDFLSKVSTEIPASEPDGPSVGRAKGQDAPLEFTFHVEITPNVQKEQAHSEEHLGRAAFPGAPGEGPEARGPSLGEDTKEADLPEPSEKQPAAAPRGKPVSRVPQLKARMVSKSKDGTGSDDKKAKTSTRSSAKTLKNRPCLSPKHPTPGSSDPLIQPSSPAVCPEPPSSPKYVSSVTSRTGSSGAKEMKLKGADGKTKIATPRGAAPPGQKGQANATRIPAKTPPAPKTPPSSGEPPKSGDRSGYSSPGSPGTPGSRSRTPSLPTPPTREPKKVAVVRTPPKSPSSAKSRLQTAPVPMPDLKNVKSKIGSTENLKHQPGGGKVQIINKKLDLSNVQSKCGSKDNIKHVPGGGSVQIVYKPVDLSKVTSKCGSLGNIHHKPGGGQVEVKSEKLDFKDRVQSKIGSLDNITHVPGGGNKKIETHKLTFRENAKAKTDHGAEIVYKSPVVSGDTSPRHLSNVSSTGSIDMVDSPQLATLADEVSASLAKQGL
# [32] = target: T6, Cholinesterase; assay: Inhibition of human BChE
# [33] = target: T4, Cholinesterase; assay: Inhibition of equine BChE using butyrylthiocholine as substrate by Ellman's method
# [34] = target: T3, Acetylcholinesterase; assay: Inhibition of electric eel AchE using acetylthiocholine as substrate by Ellman's method
# [35] = target: T1, Beta-secretase 1; assay: Inhibition of BACE1 (unknown origin) at 50 uM by FRET-based enzyme assay relative to control
# T1 sequence (P56817 whole entry): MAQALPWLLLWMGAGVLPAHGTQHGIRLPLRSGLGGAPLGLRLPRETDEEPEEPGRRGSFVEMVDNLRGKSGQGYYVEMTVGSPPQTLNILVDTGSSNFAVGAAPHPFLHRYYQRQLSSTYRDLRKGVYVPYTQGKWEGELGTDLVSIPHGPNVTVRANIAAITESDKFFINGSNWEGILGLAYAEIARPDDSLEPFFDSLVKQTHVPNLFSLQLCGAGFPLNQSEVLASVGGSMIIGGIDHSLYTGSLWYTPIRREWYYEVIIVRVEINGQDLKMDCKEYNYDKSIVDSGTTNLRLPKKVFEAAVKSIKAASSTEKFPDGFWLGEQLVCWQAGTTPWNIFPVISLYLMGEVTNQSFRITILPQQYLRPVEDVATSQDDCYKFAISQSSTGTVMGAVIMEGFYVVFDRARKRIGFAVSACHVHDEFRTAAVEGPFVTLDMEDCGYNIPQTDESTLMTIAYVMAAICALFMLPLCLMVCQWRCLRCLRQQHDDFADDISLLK
smiles,measurement,setting,value
COc1ccc(/C=C/C(=O)NCCc2cc3ccccc3[nH]2)cc1OC,inhibition,[1],40.7%
same,inhibition,[2],10.1%
same,IC50,[3],11500 nM
COc1cccc2cc(C(=O)NCCCNc3c4c(nc5cc(Cl)ccc35)CCCC4)oc12,inhibition,[4],57.8%
same,IC50,[5],130 nM
O=C(NCCNc1c2c(nc3cc(Cl)ccc13)CCCC2)c1cc(-c2ccc(Cl)cc2)on1,IC50,[6],1650 nM
same,IC50,[7],372 nM
same,inhibition,[8],79.4%
same,IC50,[9],52 nM
CN(C)/C=C/C(=O)c1cc2ccc(OCc3cn(Cc4ccc(F)c(F)c4)nn3)cc2oc1=O,IC50,[10],21700 nM
same,inhibition,[11],32.6%
CC(C)C1NC(=O)C=C1NCCN1CCN(Cc2ccccc2)CC1 (centres undefined),inhibition,[12],78.4%
CCCOc1ccc2c(C)cc(=S)oc2c1OCCC,inhibition,[13],76.7%
same,IC50,[14],17000 nM
same,inhibition,[15],57.2%
same,IC50,[16],5630 nM
c1cc2[nH]c3nc(NCCCCCCN4CCCC4)nnc3c2cc1N1CCCCC1,IC50,[17],320 nM
same,inhibition,[18],54.3%
same,IC50,[19],210 nM
O=C(C[n+]1ccc2ccccc2c1)Nc1ccccc1Br,IC50,[20],13000 nM
same,IC50,[21],12000 nM
same,inhibition,[22],18%
CCN(CCCCCOc1cc(O)c2c(c1)OC(c1ccc(O)cc1)CC2=O)Cc1ccccc1 (centres undefined),inhibition,[23],62.1%
CCN(CCCCCCOc1ccc(/C=C/C(=O)c2c(O)cc(OC)c(O)c2OC)cc1)Cc1ccccc1OC,IC50,[24],410 nM
same,inhibition,[25],78%
O=C(/C=C/c1cccs1)N1CCc2ccccc2C1,IC50,[26],2500 nM
same,inhibition,[27],65.2%
same,IC50,[28],19400 nM
Clc1ccc2c(NCCCCCN3c4ccccc4Sc4ccccc43)c3c(nc2c1)CCCC3,inhibition,[29],74.1%
same,IC50,[30],8 nM
same,inhibition,[31],50.5%
same,IC50,[32],190 nM
S=C(NCCCCNc1c2c(nc3ccccc13)CCCC2)Nc1c[nH]c2ccccc12,IC50,[30],25 nM
same,IC50,[32],76 nM
CCc1cc(-c2nnc(Nc3ccccc3Cl)s2)c(O)cc1O,IC50,[33],18300 nM
same,inhibition,[18],55.8%
same,IC50,[34],31 nM
O=C(Nc1ccc(Oc2ccc3ccc(=O)oc3c2)cc1)c1cc(-c2cccc([N+](=O)[O-])c2)on1,inhibition,[35],48.5%
same,IC50,[28],1230 nM
